Patent US8748602B2, “Polymorphs of erlotinib hydrochloride and method of preparation” (Natco Pharma Limited, priority 2007, dated 2014)
Counter-ions that a name gives are not always drawn.

Tests used:
[1] = compared with polymorphic Form A; cited from earlier work
[2] = solid state stability of the polymorphic forms; assay type: physicochemical

Row | SMILES | thermodynamic stability [1] | stability in the solid state ([2]; higher temperatures of the order of 60°-120° C.) | stability in the solid state ([2]; room temperature (30°-35° C.))
1 | C#Cc1cccc(Nc2ncnc3cc(OCCOC)c(OCCOC)cc23)c1 [Form-B, Erlotinib HCl] | thermodynamically more stable |  | 
2 | C#Cc1cccc(Nc2ncnc3cc(OCCOC)c(OCCOC)cc23)c1.Cl [Form-M, Erlotinib Hydrochloride] |  | very stable | very stable
